Laboratory results from ChEMBL document CHEMBL4814071, “Synthesis and antibacterial study of cell-penetrating peptide conjugated trifluoroacetyl and thioacetyl lysine modified peptides” (Eur J Med Chem, 2021).
pIC50: −log10 of the molar value. Where a name gives a salt, the structure may show the parent alone. Activity calls are given as the source filed them. The calls are words filed in the database; no cut-off is given here. Where a SMILES comes first, the peptide text is derived from it. The star is where a group is joined. Tfa = O=C(C(F)(F)F)*

Key:
[1] = test system: Staphylococcus aureus; test: Synergistic antibacterial activity against Staphylococcus aureus assessed as fractional inhibitory concentration index incubated for 24 hrs in presence of streptomycin; format: functional
[2] = test system: Lipid bilayer; test: Binding affinity to bacterial inner membrane mimic POPE/POPG (3:1) LUVs assessed as increase in intensity by one-dimensional 19F NMR based analysis
[3] = test system: Lipid bilayer; test: Binding affinity to mammalian membrane mimic DOPC/40% cholesterol assessed as calcein leakage at 20 uM by fluorescence based assay; format: ADME
[4] = test system: Pseudomonas aeruginosa; test: Potentiation of polymyxin B-induced antibacterial activity against Pseudomonas aeruginosa assessed as polymyxin B MIC incubated for 24 hrs by microplate reader method; format: functional
[5] = test system: Staphylococcus aureus; test: Potentiation of streptomycin-induced antibacterial activity against Staphylococcus aureus assessed as streptomycin MIC incubated for 24 hrs by microplate reader method; format: functional
[6] = test system: Escherichia coli; test: Potentiation of polymyxin B-induced antibacterial activity against Escherichia coli assessed as polymyxin B MIC incubated for 24 hrs by microplate reader method; format: functional
[7] = Induction of yeast killing at 50 uM incubated for 72 hrs in presence of Ura3 and absence of FOA by absorbance based analysis; conditions: saccharomyces cerevisiae
[8] = target: NAD-dependent histone deacetylase SIR2 (Saccharomyces cerevisiae S288c) (UniProt P06700); test: Inhibition of yeast sirtuin2-mediated Ura3 transcriptional silencing at telomeric locus assessed as yeast killing at 50 uM incubated for 72 hrs in presence of FOA by absorbance based analysis
Chain of NAD-dependent histone deacetylase SIR2 (Saccharomyces cerevisiae S288c) (P06700 whole entry): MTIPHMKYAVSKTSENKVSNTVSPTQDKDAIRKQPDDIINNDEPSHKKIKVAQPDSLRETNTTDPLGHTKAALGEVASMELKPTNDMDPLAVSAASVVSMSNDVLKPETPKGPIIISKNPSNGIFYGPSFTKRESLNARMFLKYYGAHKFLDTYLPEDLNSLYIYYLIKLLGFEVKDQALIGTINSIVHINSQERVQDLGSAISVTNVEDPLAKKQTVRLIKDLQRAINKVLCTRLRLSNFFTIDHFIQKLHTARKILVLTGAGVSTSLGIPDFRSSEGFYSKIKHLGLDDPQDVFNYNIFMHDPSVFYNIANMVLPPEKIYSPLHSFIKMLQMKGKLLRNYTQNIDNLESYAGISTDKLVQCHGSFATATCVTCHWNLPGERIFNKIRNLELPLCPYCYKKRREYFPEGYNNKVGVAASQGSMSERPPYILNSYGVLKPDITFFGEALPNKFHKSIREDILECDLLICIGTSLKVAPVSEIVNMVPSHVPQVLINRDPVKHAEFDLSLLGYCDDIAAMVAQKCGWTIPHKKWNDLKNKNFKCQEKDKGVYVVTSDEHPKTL

[9] = test system: Escherichia coli; test: Antibacterial activity against Escherichia coli assessed as reduction in microbial growth after 24 hrs in presence of polymyxin B by microplate reader method; format: functional
[10] = test system: Staphylococcus aureus; test: Antibacterial activity against Staphylococcus aureus assessed as reduction in microbial growth after 24 hrs in presence of streptomycin by microplate reader method; format: functional
[11] = test system: Staphylococcus aureus; test: Antibacterial activity against Staphylococcus aureus assessed as reduction in microbial growth after 24 hrs by microplate reader method; format: functional
[12] = test system: Escherichia coli; test: Antibacterial activity against Escherichia coli assessed as reduction in microbial growth after 24 hrs by microplate reader method; format: functional
[13] = test system: Pseudomonas aeruginosa; test: Antibacterial activity against Pseudomonas aeruginosa assessed as reduction in microbial growth after 24 hrs by microplate reader method; format: functional
[14] = test system: Staphylococcus aureus; test: Antibiofilm activity against Staphylococcus aureus assessed as biofilm eradication incubated for 24 hrs by crystal violet staining assay; format: functional
[15] = test system: Escherichia coli; test: Antibiofilm activity against Escherichia coli assessed as biofilm eradication incubated for 24 hrs by crystal violet staining assay; format: functional
[16] = test system: Staphylococcus aureus; test: Antibiofilm activity against Staphylococcus aureus assessed as inhibition of biofilm formation incubated for 48 hrs by crystal violet staining assay; format: functional
[17] = test system: Escherichia coli; test: Antibiofilm activity against Escherichia coli assessed as as inhibition of biofilm formation incubated for 48 hrs by crystal violet staining assay; format: functional
[18] = test system: Cell membrane; test: Disruption of membrane integrity in Escherichia coli at 2 times MIC measured after 20 mins by SEM analysis
[19] = test system: Cell membrane; test: Disruption of membrane integrity in Staphylococcus aureus at 2 times MIC measured after 20 mins by SEM analysis
[20] = test system: Escherichia coli; test: Synergistic antibacterial activity against Escherichia coli assessed as fractional inhibitory concentration index incubated for 24 hrs in presence of Polymyxin B; format: functional
[21] = test system: Pseudomonas aeruginosa; test: Synergistic antibacterial activity against Pseudomonas aeruginosa assessed as fractional inhibitory concentration index incubated for 24 hrs in presence of Polymyxin B; format: functional
[22] = test system: Lipid bilayer; test: Binding affinity to bacterial inner membrane mimic DOPE/DOPG (3:1) large unilamellar vesicles assessed as calcein leakage at 20 uM by fluorescence based assay
[23] = Hemolytic activity against mouse RBC at 1000 uM measured after 1 hr by microplate reader analysis; format: cell-based, Erythrocyte; conditions: mouse red blood cells (erythrocytes), read-out: Activity
[24] = test system: HeLa; test: Cytotoxicity against human HeLa cells assessed as reduction in cell viability incubated for 48 hrs by MTT assay; format: cell-based
[25] = test system: BE(2)-C; test: Cytotoxicity against human BE(2)-C cells assessed as reduction in cell viability incubated for 48 hrs by MTT assay; format: cell-based
[26] = test system: Staphylococcus aureus; test: Antibiofilm activity against Staphylococcus aureus assessed as biofilm eradication at 2XMBEC incubated for 12 hrs by SYTO9/PI staining based microscopic analysis; format: functional, organism-based
[27] = test system: Escherichia coli; test: Antibiofilm activity against Escherichia coli assessed as biofilm eradication at 2XMBEC incubated for 12 hrs by SYTO9/PI staining based microscopic analysis; format: functional, organism-based
[28] = Inhibition of transcriptional machinery using Puc19-lacCONS plasmid DNA and Escherichia coli RNA polymerase-sigma70 holoenzyme at 40 uM incubated for 35 mins followed by NTP addition for 30 mins by spectrofluorometer analysis; format: functional; conditions: time 65.0 min
[29] = test system: Pseudomonas aeruginosa; test: Antibacterial activity against Pseudomonas aeruginosa assessed as reduction in microbial growth after 24 hrs in presence of polymyxin B by microplate reader method; format: functional
[30] = test system: Staphylococcus aureus; test: Potentiation of streptomycin-induced antibacterial activity against Staphylococcus aureus assessed as fold change in streptomycin MIC incubated for 24 hrs by microplate reader method; format: functional
[31] = test system: Cell membrane; test: Disruption of membrane integrity in Escherichia coli at 2 times MIC by TEM analysis
[32] = test system: Lipid bilayer; test: Binding affinity to bacterial inner membrane mimic DOPE/DOPG (3:1) large unilamellar vesicles assessed as calcein leakage at 2.5 uM by fluorescence based assay
[33] = test system: Cell membrane; test: Disruption of membrane integrity in Staphylococcus aureus at 2 times MIC by TEM analysis
[34] = test system: Cell membrane; test: Disruption of membrane integrity in Escherichia coli assessed as cellular leakage at 2 times MIC by TEM analysis
[35] = Inhibition of transcriptional machinery using Puc19-lacCONS plasmid DNA and Escherichia coli RNA polymerase-sigma70 holoenzyme at 10 uM incubated for 35 mins followed by NTP addition for 30 mins by spectrofluorometer analysis; format: functional; conditions: time 65.0 min

Row | SMILES | fractional inhibitory concentration index (FICI) [1] | Activity [2] | Activity [3] | MIC [4] | MIC [5] | MIC [6] | Activity [7] | inhibition [8] | MIC [9] | MIC [10] | MIC [11] | MIC [12] | MIC [13] | MBEC [14] | MBEC [15] | MBIC [16] | MBIC [17] | Activity [18] | Activity [19] | fractional inhibitory concentration index (FICI) [20] | also measured
1 | CC(=O)N[C@@H](CCCCN)C(=O)NCC(=O)N[C@@H](CC(C)C)C(=O)N[C@@H](CCCNC(=N)N)C(=O)N[C@@H](CCCCNC(=O)C(F)(F)F)C(=O)N[C@@H](Cc1ccccc1)C(=O)NCC(=O)N[C@@H](C)C(=O)N[C@@H](CCCCN)C(=O)N[C@@H](CCCNC(=N)N)C(=O)N[C@@H](Cc1cnc[nH]1)C(=O)N[C@@H](CCCNC(=N)N)C(=O)N[C@@H](CS)C(N)=O (Ac-KGLRK(Tfa)FGAKRHRC-NH2) | 0.19 | Active | < 20% | 0.1 µM | 0.38 µM | 0.05 µM | Toxic | Active | 15.6 µM | 0.31 µM | 1.5 µM | 125 µM | > 250 µM | 12.5 µM | inactive | 6.3 µM | inactive | inactive | inactive | 0.36 | fractional inhibitory concentration index (FICI) [21]: 0.36; Activity [22]: 70%; hemolysis at 1 h, 1000 µM [23]: < 5%; pIC50 [24]: 4.02; pIC50 [25]: 4.11; Activity [26]: Active; Activity [27]: Active; inhibition [28]: Active; MIC [29]: 25 µM; fold change (FC) [30]: 6
2 | CC(=O)N[C@@H](Cc1ccc(O)cc1)C(=O)NCC(=O)N[C@@H](CCCNC(=N)N)C(=O)N[C@@H](CCCCN)C(=O)N[C@@H](CCCCN)C(=O)N[C@@H](CCCNC(=N)N)C(=O)N[C@@H](CCCNC(=N)N)C(=O)N[C@@H](CCC(N)=O)C(=O)N[C@@H](CCCNC(=N)N)C(=O)N[C@@H](CCCNC(=N)N)C(=O)N[C@@H](CCCNC(=N)N)C(=O)NCC(=O)NCC(=O)NCC(=O)N[C@@H](CCCCN)C(=O)NCC(=O)N[C@@H](CC(C)C)C(=O)N[C@@H](CCCNC(=N)N)C(=O)N[C@@H](CCCCNC(=O)C(F)(F)F)C(=O)N[C@@H](Cc1ccccc1)C(=O)NCC(=O)N[C@@H](C)C(=O)N[C@@H](CCCCN)C(=O)N[C@@H](CCCNC(=N)N)C(=O)N[C@@H](Cc1cnc[nH]1)C(=O)N[C@@H](CCCNC(=N)N)C(=O)N[C@@H](CS)C(=O)O (Ac-YGRKKRRQRRRGGGKGLRK(Tfa)FGAKRHRC-OH) | 0.22 | Active | < 20% | 0.05 µM | 0.38 µM | 0.1 µM | Toxic | Active | 0.63 µM | 0.05 µM | 0.2 µM | 1.5 µM | 25 µM | 3.2 µM | 62.5 µM | 0.8 µM | 15.6 µM | Active | Active | 0.73 | Activity [31]: Active; fractional inhibitory concentration index (FICI) [21]: 0.42; Activity [32]: 90%; Activity [22]: Active; hemolysis at 1 h, 1000 µM [23]: < 5%; pIC50 [24]: 4.69; pIC50 [25]: 4.76; Activity [26]: Active; Activity [27]: Active; Activity [33]: Active; Activity [34]: Active; inhibition [35]: 100%; MIC [29]: 12.5 µM; fold change (FC) [30]: 6
